The record followed here is PubChem BioAssay (NCI).

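Each compound was tested at five concentrations against cells in 96-well plates for 48 hours. TGI denotes the concentration required for complete inhibition of growth.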

What all share (test): NCI anticancer screen, dose series, 48 h
The subject of test [1] is A549 NSCLC.
Test [2] concerns HS 578T breast.
Test [3] deals with SK-MEL-28 melanoma.
The subject of test [4] is MOLT-4 leukemia.
The test system of test [5] is MDA-MB-435.
The subject of test [6] is MDA-MB-231 breast.
Test [7] deals with SK-MEL-5 melanoma.

`CC(OC(=O)C(CC(=O)OC(C)(C)C)NC(=O)OC(C)(C)C)C(=O)OCc1ccccc1` (stereo not given): the TGI in test [1], in test [2], in test [3], in test [4], in test [5] and in test [6] was more than 100 µM each time.

Take `COc1cc2c(cc1OC)C(=O)/C(=C/c1cc(OC)c(OC)c(OC)c1)C2`: the TGI in test [7], in test [2], in test [3], in test [4], in test [5] and in test [6] was more than 100 µM in each case.

Consider `CC1CCC2(CC1)NC1=C(CC(C)CC1)C1=C2CC(C)CC1` (stereo not given), for which the TGI was more than 100 µM in test [1]; 24.4 µM in test [7]; 63.2 µM in test [2]; 35 µM in test [3]; 53 µM in test [4]; 53.9 µM in test [6].

Take `COc1ccc(C2C3CCc4ccccc4C3=NN2S(=O)(=O)c2ccc(/C=C/C(=O)O)cc2)cc1` (stereo not given): the TGI in test [1] was 54.4 µM; in test [7], 18.6 µM; in test [4], 25.3 µM; in test [5] it was 2.69 µM; in test [6], more than 100 µM.

With `COC(=O)/C=C/C1(O)C=CC(=O)C=C1`, the TGI was more than 47.8 µM in test [1]; 17.6 µM in test [7]; more than 19.8 µM in test [3]; more than 24.6 µM in test [4]; more than 39.2 µM in test [5]; 5.37 µM in test [6].

`O=C(NCCNCCCNC(=O)c1cc(-c2ccccc2)nc2ccccc12)c1cccc(OCc2ccccc2)c1OCc1ccccc1`: the TGI in test [1] worked out at 3.15 µM; in test [7] it was 3.12 µM; in test [3] it was 3.25 µM; in test [4], 3.51 µM; in test [5], 3.04 µM; in test [6], 3.21 µM.

Turning to `C1CC[C@H]2SSC3CCCC[C@H]3SSC2C1` (stereo not given in full), the TGI in test [1], in test [7], in test [3], in test [4], in test [5] and in test [6] was more than 100 µM in each case.

On to `C=CCOC(=O)C1=C(CCC[C@@H](C)O[Si](C)(C)C(C)(C)C)N=C(N)N2[C@H](CCO)CC[C@@H]12`, for which the TGI in test [1] worked out at 22 µM; in test [7], 24.9 µM; in test [3] it was 31.3 µM; in test [4], 24.9 µM; in test [5], 27.8 µM; in test [6], 29.6 µM.

As for `O=C(OCc1ccccc1)N(CCCCN(CCCNCc1ccccc1)C(=O)OCc1ccccc1)CCCNCc1ccccc1`, the TGI in test [7] is more than 100 µM; in test [3] it was 3.08 µM; in test [5] it was 0.335 µM; in test [6], 2.56 µM.

Turning to `C/C(=N\Nc1nc2cccnc2s1)c1ccccn1`, the TGI was more than 34.8 µM in test [1]; 9.02 µM in test [7]; more than 100 µM in test [3]; more than 100 µM in test [5]; 38.6 µM in test [6].

Consider `Brc1ccc2c(c1)-c1nc3nc4c(cc3cc1CC2)CCc1ccc(Br)cc1-4`, for which the TGI in test [1], in test [7], in test [3], in test [4], in test [5] and in test [6] was more than 100 µM in each case.

In the case of `O=c1cn[nH]c(=S)n1/N=C/c1c[nH]c2ccccc12`, the TGI in test [1], in test [7], in test [2], in test [3], in test [4] and in test [5] was more than 100 µM in each case.

`CN1CN(c2ccccc2)C2(CCN(CCC3COc4ccccc4O3)CC2)C1=O` (stereo not given): the TGI in test [1] is more than 100 µM; in test [7], 28.2 µM; in test [3], 47.3 µM; in test [4], 70.1 µM; in test [5] it was 89.4 µM; in test [6], more than 100 µM.

For `CC(=O)Nc1nnc(S(C)(=O)=O)s1`, the TGI in test [1], in test [3], in test [4] and in test [5] was more than 100 µM each time.

As to `Cc1cc(S(=O)(=O)/N=C(/[N-]S(=O)(=O)c2ccc(Cl)cc2)[n+]2ccc(N(C)C)cc2)c(SCC(=O)O)cc1Cl`, the TGI in test [1], in test [2], in test [4], in test [5] and in test [6] was more than 100 µM each time.

On to `Cc1cccc(-c2cc(=O)c3c(C)cc(C)nc3[nH]2)c1`, for which the TGI was more than 100 µM in test [1]; 15.8 µM in test [7]; more than 20.3 µM in test [2]; more than 100 µM in test [3]; more than 100 µM in test [4]; 31.8 µM in test [6].

Turning to `COP(=O)(OC)C(O)CC(C)C` (stereo not given), the TGI in test [1], in test [7], in test [3], in test [4], in test [5] and in test [6] was more than 100 µM in each case.
